# According to article PMC7402526, “An in vitro quantitative systems pharmacology approach for deconvolving mechanisms of drug-induced, multilineage cytopenias” (PLoS Computational Biology, 2020):
# What was measured:
# [1] = test system: hematopoietic stem cells (HSCs); experiment: Multi-lineage toxicity assay (MLTA), HSCs: concentration-response and QSP model fit; type: cell-based, human; parameters: EmaxAP,HSC / EmaxT,HSC / Emax_drug_HSC: unitless, 0–2; ≤1 anti-proliferative, >1 adds cell killing
# Protocol: (§1) A custom optimized cytokine cocktail was developed using commercially available cytokines (Peprotech, New Jersey) to facilitate simultaneous multi-lineage differentiation and self-renewal of freeze-thawed primary human bone marrow-derived CD34+ cells in SFEM II media (cells and media from StemCell Technologies, Vancouver). Cultures were carried out in ultra-low attachment 96-well plates (Corning, New York) with test article added on day 0 and cultured at 37°C, 85% relative humidity, and 5% CO2 for six days before interrogating drug impact via 17-parameter flow cytometry.
# (§2) The flow cytometry panel used to define hematopoietic subsets was composed of CD34-PECy7, CD90-PECY5, CD38-AF488, CD371-PE, CD45Ra-BV421, CD14-BV605, CD42b-AF647, CD10-PEDazzle594, CD235a-PerCPCy5.5 (BioLegend, California), CD15-BUV395, CD41a-APCH7, CD71-BV786 (BD Biosciences, California), and DAPI for dead cell exclusion (ThermoFisher, California). In short, Day 6 cells were harvested, FcR-blocked (FcR binding inhibitor, ThermoFisher), surface-stained, then analyzed in a buffer containing TruCount Control Beads using a BD LSR Fortessa SORP fitted with a high-throughput sampler (BD Biosciences, California). Data was analyzed in Diva 6.0.2 and exported to CSV where after all cell data was transformed to cell per mL then normalized on a per-donor basis to untreated control wells to determine drug impact.
# (§3) Donor material was collected and cultured as described above. The number of replicate donor samples per drug ranged from 2–7 and varied per drug (S1 Table). Drug treatment was added at time 0 and cells were maintained in culture for 6 days. Concentrations tested for each drug compound are contained in S1 Table. Concentrations were selected to span a range that is clinically useful. Following treatment, cell populations were measured using flow cytometry. We extracted cell counts from flow cytometry data, normalized to bead counts, and corrected for well volume.
# (§4) Each well was normalized to the average of six vehicle control wells. For drugs that were tested across multiple runs of the assay, vehicle-normalized donor data were pooled, and we used the average of these pooled data for further modeling. Normalized data used as model inputs are included in S1 Table.
# (§5) We implemented drug effects using an Emax model for the drug’s effect on each cell type. The 13 maximum effect parameters (EmaxT,C) are unitless and can vary between 0 and 2 and where a subscript, C, represents one of the previously described 13 cell types. We adapted a traditional Emax model using the equations below. We interpreted EmaxT values less than or equal to one as anti-proliferative, and EmaxT values greater than one as indicating a cell-killing mechanism in addition to anti-proliferation. The relationships for these effects are included in the model using the following equations. Eq 2 describes the drug anti-proliferative effect in the net proliferation rate for a given cell type. Eq 3 describes the cell-killing EmaxCK effect.
# (§6) Towards the estimation of mechanistic parameters, we considered different formulations: (a) weighting the objective value to prioritize fitting dead cells and (b) using regularization methodology to encourage a parsimonious solution. We assessed the contributions of these formulations using mean-squared error and goodness of fit plots for drugs with known mechanisms. […] Further, we used L1 regularization to penalize parameters […] to help identify a parsimonious set of parameters to explain drug effects.
# [2] = test system: multi-potent progenitors (MPPs); experiment: MLTA, MPPs: concentration-response and QSP model fit; type: cell-based, human; conditions: Homo sapiens, 144 h
# Protocol: as §1, §2, §3, §4, §5, §6
# [3] = test system: monocyte progenitors (monocyte prog); experiment: MLTA, MonoP: concentration-response and QSP model fit; type: cell-based, human; conditions: Homo sapiens, Monocyte, 144 h
# Protocol: as §1, §2, §3, §4, §5, §6
# [4] = test system: monocytes (monocyte-lin); experiment: MLTA, Mono: concentration-response and QSP model fit; type: cell-based, human; conditions: Homo sapiens, Monocyte, 144 h
# Protocol: as §1, §2, §3, §4, §5, §6
# [5] = test system: early erythroid cells (Eryth I); experiment: MLTA, ErythI: concentration-response and QSP model fit; type: cell-based, human; conditions: Homo sapiens, 144 h
# Protocol: as §1, §2, §3, §4, §5, §6
# [6] = test system: late erythroid cells (Eryth II); experiment: MLTA, ErythII: concentration-response and QSP model fit; type: cell-based, human; conditions: Homo sapiens, 144 h
# Protocol: as §1, §2, §3, §4, §5, §6
# [7] = test system: B cells (B-lin); experiment: MLTA, B-lin: concentration-response and QSP model fit; type: cell-based, human; conditions: Homo sapiens, B-cell, 144 h
# Protocol: as §1, §2, §3, §4, §5, §6
# [8] = test system: total dead cells (totalDeadCells); experiment: MLTA, total dead cells concentration-response; type: cell-based; conditions: Homo sapiens, 144 h, 6 days, normalized to vehicle control, read-out: total_dead normalized cell count
# Protocol: as §1, §2, §3, §4
# [9] = QSP model fit of 6-day MLTA data
compound,measurement,setting,value
CCN1CCN(Cc2ccc(Nc3ncc(F)c(-c4cc(F)c5nc(C)n(C(C)C)c5c4)n3)nc2)CC1 [abemaciclib],EC50,"[1]; Homo sapiens, Hematopoietic stem cell, 144 h, QSP model fit of 6-day MLTA data",111 nM
same,activity at 0.0002 µM,"[1]; Homo sapiens, Hematopoietic stem cell, 144 h, dose 0.2 nM, 6 days, normalized to vehicle control, read-out: HSCs normalized cell count",89.3%
same,activity at 0.001 µM,"[1]; Homo sapiens, Hematopoietic stem cell, 144 h, dose 1 nM, 6 days, normalized to vehicle control, read-out: HSCs normalized cell count",103%
same,activity at 0.005 µM,"[1]; Homo sapiens, Hematopoietic stem cell, 144 h, dose 5 nM, 6 days, normalized to vehicle control, read-out: HSCs normalized cell count",98.4%
same,activity at 0.025 µM,"[1]; Homo sapiens, Hematopoietic stem cell, 144 h, dose 25 nM, 6 days, normalized to vehicle control, read-out: HSCs normalized cell count",66.7%
same,activity at 0.1 µM,"[1]; Homo sapiens, Hematopoietic stem cell, 144 h, dose 100 nM, 6 days, normalized to vehicle control, read-out: HSCs normalized cell count",25.9%
same,activity at 0.5 µM,"[1]; Homo sapiens, Hematopoietic stem cell, 144 h, dose 500 nM, 6 days, normalized to vehicle control, read-out: HSCs normalized cell count",5.33%
same,activity at 2.5 µM,"[1]; Homo sapiens, Hematopoietic stem cell, 144 h, dose 2500 nM, 6 days, normalized to vehicle control, read-out: HSCs normalized cell count",2.74%
same,Emax,"[1]; Homo sapiens, Hematopoietic stem cell, 144 h, parameter from QSP model fitting, read-out: Emax_drug_HSC",91%
same,"EmaxAP,HSC","[1]; anti-proliferation component, min(1, EmaxT)",0.910
same,activity at 0.0002 µM,"[2]; dose 0.2 nM, 6 days, normalized to vehicle control, read-out: MPPs normalized cell count",102%
same,activity at 0.001 µM,"[2]; dose 1 nM, 6 days, normalized to vehicle control, read-out: MPPs normalized cell count",98.3%
same,activity at 0.005 µM,"[2]; dose 5 nM, 6 days, normalized to vehicle control, read-out: MPPs normalized cell count",80.3%
same,activity at 0.025 µM,"[2]; dose 25 nM, 6 days, normalized to vehicle control, read-out: MPPs normalized cell count",44.3%
same,activity at 0.1 µM,"[2]; dose 100 nM, 6 days, normalized to vehicle control, read-out: MPPs normalized cell count",24.8%
same,activity at 0.5 µM,"[2]; dose 500 nM, 6 days, normalized to vehicle control, read-out: MPPs normalized cell count",27.6%
same,activity at 2.5 µM,"[2]; dose 2500 nM, 6 days, normalized to vehicle control, read-out: MPPs normalized cell count",3.6%
same,Emax,"[2]; parameter from QSP model fitting, read-out: Emax_drug_MPP",0.16%
same,activity at 0.0002 µM,"[3]; dose 0.2 nM, 6 days, normalized to vehicle control, read-out: MonoPs normalized cell count",98.7%
same,activity at 0.001 µM,"[3]; dose 1 nM, 6 days, normalized to vehicle control, read-out: MonoPs normalized cell count",99.4%
same,activity at 0.005 µM,"[3]; dose 5 nM, 6 days, normalized to vehicle control, read-out: MonoPs normalized cell count",80.6%
same,activity at 0.025 µM,"[3]; dose 25 nM, 6 days, normalized to vehicle control, read-out: MonoPs normalized cell count",27.5%
same,activity at 0.1 µM,"[3]; dose 100 nM, 6 days, normalized to vehicle control, read-out: MonoPs normalized cell count",8.19%
same,activity at 0.5 µM,"[3]; dose 500 nM, 6 days, normalized to vehicle control, read-out: MonoPs normalized cell count",1.58%
same,activity at 2.5 µM,"[3]; dose 2500 nM, 6 days, normalized to vehicle control, read-out: MonoPs normalized cell count",0.0911%
same,Emax,"[3]; parameter from QSP model fitting, read-out: Emax_drug_MonoP",0.17%
same,EC50,[4]; [9],46.2 nM
same,activity at 0.0002 µM,"[4]; dose 0.2 nM, 6 days, normalized to vehicle control, read-out: Mon normalized cell count",92.9%
same,activity at 0.001 µM,"[4]; dose 1 nM, 6 days, normalized to vehicle control, read-out: Mon normalized cell count",109%
same,activity at 0.005 µM,"[4]; dose 5 nM, 6 days, normalized to vehicle control, read-out: Mon normalized cell count",87%
same,activity at 0.025 µM,"[4]; dose 25 nM, 6 days, normalized to vehicle control, read-out: Mon normalized cell count",41.8%
same,activity at 0.1 µM,"[4]; dose 100 nM, 6 days, normalized to vehicle control, read-out: Mon normalized cell count",10.9%
same,activity at 0.5 µM,"[4]; dose 500 nM, 6 days, normalized to vehicle control, read-out: Mon normalized cell count",3.74%
same,activity at 2.5 µM,"[4]; dose 2500 nM, 6 days, normalized to vehicle control, read-out: Mon normalized cell count",0.588%
same,Emax,"[4]; parameter from QSP model fitting, read-out: Emax_drug_Mono",23.1%
same,EC50,"[5]; QSP model fit of 6-day MLTA data, read-out: EC50ErythI",29.2 nM
same,activity at 0.0002 µM,"[5]; dose 0.2 nM, 6 days, normalized to vehicle control, read-out: ErythI normalized cell count",107%
same,activity at 0.001 µM,"[5]; dose 1 nM, 6 days, normalized to vehicle control, read-out: ErythI normalized cell count",116%
same,activity at 0.005 µM,"[5]; dose 5 nM, 6 days, normalized to vehicle control, read-out: ErythI normalized cell count",97.8%
same,activity at 0.025 µM,"[5]; dose 25 nM, 6 days, normalized to vehicle control, read-out: ErythI normalized cell count",47.1%
same,activity at 0.1 µM,"[5]; dose 100 nM, 6 days, normalized to vehicle control, read-out: ErythI normalized cell count",20.1%
same,activity at 0.5 µM,"[5]; dose 500 nM, 6 days, normalized to vehicle control, read-out: ErythI normalized cell count",4.76%
same,activity at 2.5 µM,"[5]; dose 2500 nM, 6 days, normalized to vehicle control, read-out: ErythI normalized cell count",0.613%
same,Emax,"[5]; parameter from QSP model fitting, read-out: Emax_drug_ErythroidI",102%
same,EC50,"[6]; QSP model fit of 6-day MLTA data, read-out: EC50ErythII",45.1 nM
same,activity at 0.0002 µM,"[6]; dose 0.2 nM, 6 days, normalized to vehicle control, read-out: ErythII normalized cell count",96.2%
same,activity at 0.001 µM,"[6]; dose 1 nM, 6 days, normalized to vehicle control, read-out: ErythII normalized cell count",112%
same,activity at 0.005 µM,"[6]; dose 5 nM, 6 days, normalized to vehicle control, read-out: ErythII normalized cell count",106%
same,activity at 0.025 µM,"[6]; dose 25 nM, 6 days, normalized to vehicle control, read-out: ErythII normalized cell count",57.9%
same,activity at 0.1 µM,"[6]; dose 100 nM, 6 days, normalized to vehicle control, read-out: ErythII normalized cell count",20.4%
same,activity at 0.5 µM,"[6]; dose 500 nM, 6 days, normalized to vehicle control, read-out: ErythII normalized cell count",1.77%
same,activity at 2.5 µM,"[6]; dose 2500 nM, 6 days, normalized to vehicle control, read-out: ErythII normalized cell count",0.0231%
same,Emax,"[6]; parameter from QSP model fitting, read-out: Emax_drug_ErythroidII",3.33%
same,EC50,[7]; [9],69.2 nM
same,activity at 0.0002 µM,"[7]; dose 0.2 nM, 6 days, normalized to vehicle control, read-out: B-lin normalized cell count",83.9%
same,activity at 0.001 µM,"[7]; dose 1 nM, 6 days, normalized to vehicle control, read-out: B-lin normalized cell count",104%
same,activity at 0.005 µM,"[7]; dose 5 nM, 6 days, normalized to vehicle control, read-out: B-lin normalized cell count",83.9%
same,activity at 0.025 µM,"[7]; dose 25 nM, 6 days, normalized to vehicle control, read-out: B-lin normalized cell count",50.8%
same,activity at 0.1 µM,"[7]; dose 100 nM, 6 days, normalized to vehicle control, read-out: B-lin normalized cell count",23.5%
same,activity at 0.5 µM,"[7]; dose 500 nM, 6 days, normalized to vehicle control, read-out: B-lin normalized cell count",4.07%
same,activity at 2.5 µM,"[7]; dose 2500 nM, 6 days, normalized to vehicle control, read-out: B-lin normalized cell count",0.0736%
same,Emax,"[7]; parameter from QSP model fitting, read-out: Emax_drug_B",64.9%
same,activity at 0.0002 µM,[8]; dose 0.2 nM,92%
same,activity at 0.001 µM,[8]; dose 1 nM,97.6%
same,activity at 0.005 µM,[8]; dose 5 nM,87.1%
same,activity at 0.025 µM,[8]; dose 25 nM,46.8%
same,activity at 0.1 µM,[8]; dose 100 nM,30.9%
same,activity at 0.5 µM,[8]; dose 500 nM,22%
same,activity at 2.5 µM,[8]; dose 2500 nM,34%
